Measured values: ChEMBL document CHEMBL6078707, “Preferential Synaptic Type of GABA-A Receptor Ligands Enhancing Neuronal Survival and Facilitating Functional Recovery After Ischemic Stroke” (J Med Chem, 2024)

What was measured:
[1] = Permeability of compound in PBS buffer at pH7.4 at 100 uM incubated for 5 hrs by UPLC-MS based PAMPA assay; format: ADME; conditions: pH 7.4, read-out: permeability
[2] = Thermodynamic solubility of compound in phosphate buffer at pH 7.4 at 2 mg measured after 24 hrs by HPLC analysis; format: physicochemical; conditions: read-out: Therm_solubility
[3] = Cmax in male Sprague-Dawley rat brain at 3 mg/kg, iv measured after 480 mins by LC-ESI/MS-MS analysis; format: ADME, organism-based
[4] = Tmax in male Sprague-Dawley rat plasma at 3 mg/kg, ip measured after 480 mins by LC-ESI/MS-MS analysis; format: ADME, organism-based
[5] = Terminal half-life in male Sprague-Dawley rat at 5 mg/kg, ip measured after 480 mins by LC-ESI/MS-MS analysis; format: ADME, organism-based; conditions: in vivo, read-out: beta t1/2
[6] = Clearance in male Sprague-Dawley rat at 5 mg/kg, ip measured after 480 mins by LC-ESI/MS-MS analysis; format: ADME, organism-based; conditions: in vivo
[7] = Volume of distribution in male Sprague-Dawley rat plasma at 3 mg/kg, iv measured after 480 mins by LC-ESI/MS-MS analysis; format: ADME, organism-based
[8] = MRT in male Sprague-Dawley rat brain at 3 mg/kg, iv measured after 480 mins by LC-ESI/MS-MS analysis; format: ADME, organism-based
[9] = Metabolic stability in human liver microsomes assessed as intrinsic clearance; format: ADME, Microsome; conditions: read-out: CLH
[10] = Cmax in male Sprague-Dawley rat at 5 mg/kg, ip measured after 480 mins by LC-ESI/MS-MS analysis; format: ADME, organism-based; conditions: in vivo
[11] = Unbound drug concentration in male Sprague-Dawley rat plasma at 3 mg/kg, ip measured after 480 mins by LC-ESI/MS-MS analysis; format: ADME, organism-based; conditions: in vivo, 8 h
[12] = Tmax in male Sprague-Dawley rat brain at 3 mg/kg, ip measured after 480 mins by LC-ESI/MS-MS analysis; format: ADME, organism-based
[13] = Cmax in male Sprague-Dawley rat plasma at 3 mg/kg, ip measured after 480 mins by LC-ESI/MS-MS analysis; format: ADME, organism-based
[14] = AUC (0 to t) in male Sprague-Dawley rat at 5 mg/kg, ip measured after 480 mins by LC-ESI/MS-MS analysis; format: ADME, organism-based; conditions: in vivo
[15] = MRT in male Sprague-Dawley rat plasma at 3 mg/kg, iv measured after 480 mins by LC-ESI/MS-MS analysis; format: ADME, organism-based
[16] = Drug metabolism in human liver microsomes assessed as hydroxylation mediated metabolite formation by LCMS analysis; format: ADME, Microsome
[17] = Terminal half-life in male Sprague-Dawley rat plasma at 3 mg/kg, ip measured after 480 mins by LC-ESI/MS-MS analysis; format: ADME, organism-based; conditions: read-out: beta t1/2
[18] = AUC (0 to t) in male Sprague-Dawley rat brain at 3 mg/kg, ip measured after 480 mins by LC-ESI/MS-MS analysis; format: ADME, organism-based; conditions: in vivo, 8 h
[19] = Terminal half-life in male Sprague-Dawley rat brain at 3 mg/kg, iv measured after 480 mins by LC-ESI/MS-MS analysis; format: ADME, organism-based; conditions: read-out: beta t1/2
[20] = Unbound drug concentration in male Sprague-Dawley rat brain at 3 mg/kg, ip measured after 480 mins by LC-ESI/MS-MS analysis; format: ADME, organism-based; conditions: in vivo, 8 h
[21] = Drug distribution in MCAO-reperfusion induced male Sprague-Dawley rat brain at 1.5 mg/kg, ip administered once daily for 3 days starting from 1.5 hrs post reperfusion by DESI mass spectrometric imaging analysis; format: ADME, organism-based; conditions: in vivo, 72 h, time 3 day
[22] = AUC (0 to t) in male Sprague-Dawley rat brain at 3 mg/kg, iv measured after 480 mins by LC-ESI/MS-MS analysis; format: ADME, organism-based; conditions: in vivo, 8 h
[23] = Cmax in male Sprague-Dawley rat brain at 3 mg/kg, ip measured after 480 mins by LC-ESI/MS-MS analysis; format: ADME, organism-based
[24] = MRT in male Sprague-Dawley rat at 5 mg/kg, ip measured after 480 mins by LC-ESI/MS-MS analysis; format: ADME, organism-based; conditions: in vivo
[25] = Metabolic stability in human liver microsomes assessed as half-life; format: ADME, Microsome
[26] = AUC (0 to t) in male Sprague-Dawley rat plasma at 3 mg/kg, ip measured after 480 mins by LC-ESI/MS-MS analysis; format: ADME, organism-based
[27] = Permeability across apical to basolateral side in MDCKII-MDR1 cells at pH 7.4; format: ADME, cell-based, Canis lupus familiaris; conditions: dog, MDCK-MDR1, pH 7.4; read-out: permeability
[28] = Terminal half-life in male Sprague-Dawley rat plasma at 3 mg/kg, iv measured after 480 mins by LC-ESI/MS-MS analysis; format: ADME, organism-based; conditions: read-out: beta t1/2
[29] = Clearance in male Sprague-Dawley rat plasma at 3 mg/kg, iv measured after 480 mins by LC-ESI/MS-MS analysis; format: ADME, organism-based
[30] = Terminal half-life in male Sprague-Dawley rat brain at 3 mg/kg, ip measured after 480 mins by LC-ESI/MS-MS analysis; format: ADME, organism-based; conditions: read-out: beta t1/2
[31] = Permeability across basolateral to apical side in MDCKII-MDR1 cells at pH 7.4; format: ADME, cell-based, Canis lupus familiaris; conditions: dog, MDCK-MDR1, pH 7.4
[32] = Tmax in male Sprague-Dawley rat brain at 3 mg/kg, iv measured after 480 mins by LC-ESI/MS-MS analysis; format: ADME, organism-based
[33] = MRT in male Sprague-Dawley rat brain at 3 mg/kg, ip measured after 480 mins by LC-ESI/MS-MS analysis; format: ADME, organism-based
[34] = MRT in male Sprague-Dawley rat plasma at 3 mg/kg, ip measured after 480 mins by LC-ESI/MS-MS analysis; format: ADME, organism-based
[35] = Volume of distribution in male Sprague-Dawley rat at 5 mg/kg, ip measured after 480 mins by LC-ESI/MS-MS analysis; format: ADME, organism-based; conditions: in vivo, 8 h
[36] = AUC (0 to t) in male Sprague-Dawley rat plasma at 3 mg/kg, iv measured after 480 mins by LC-ESI/MS-MS analysis; format: ADME, organism-based; conditions: in vivo, 8 h
[37] = Half-life in male Sprague-Dawley rat at 5 mg/kg, ip by HPLC analysis; format: ADME, organism-based; conditions: in vivo
[38] = Half-life in human plasma; format: ADME, cell-free

Cc1ccc2nc(-c3ccc(F)cc3)c(CC(=O)N3CCOCC3)n2n1.O=C(O)C(O)C(O)C(=O)O
Papp at 5 h, 100 µM [1]: 9.99 ×10⁻⁶ cm/s | solubility thermodynamic at 24 h [2]: 1590 µg/mL

Cc1ccc2nc(-c3ccc(F)cc3)c(CC(=O)N3CCCC3)n2n1.O=C(O)C(O)C(O)C(=O)O
Papp at 5 h, 100 µM [1]: 22.9 ×10⁻⁶ cm/s

COc1ccc(NC(=O)Cc2c(-c3ccc(F)cc3)nc3ccc(C)cn23)cc1.O=C(O)C(O)C(O)C(=O)O
Papp at 5 h, 100 µM [1]: 1.03 ×10⁻⁶ cm/s

COc1ccc(NC(=O)Cc2c(-c3ccc(F)cc3)nc3ccc(C)nn23)cc1.O=C(O)C(O)C(O)C(=O)O
Papp at 5 h, 100 µM [1]: 433 ×10⁻⁶ cm/s | solubility thermodynamic at 24 h [2]: 130 µg/mL

Cc1ccc2nc(-c3ccc(F)cc3)c(CC(=O)Nc3ccccc3)n2c1.O=C(O)C(O)C(O)C(=O)O
Papp at 5 h, 100 µM [1]: 5.29 ×10⁻⁶ cm/s

Cc1ccc2nc(-c3ccc(F)cc3)c(CC(=O)Nc3ccccc3F)n2c1.O=C(O)C(O)C(O)C(=O)O
Papp at 5 h, 100 µM [1]: 6.25 ×10⁻⁶ cm/s

Cc1ccc2nc(-c3ccc(F)cc3)c(CC(=O)Nc3ccc(F)cc3)n2c1.O=C(O)C(O)C(O)C(=O)O
Papp at 5 h, 100 µM [1]: 6.06 ×10⁻⁶ cm/s

Cc1ccc2nc(-c3ccc(F)cc3)c(CC(=O)N3CCSCC3)n2n1.O=C(O)C(O)C(O)C(=O)O
Papp at 5 h, 100 µM [1]: 11.7 ×10⁻⁶ cm/s | solubility thermodynamic at 24 h [2]: 320 µg/mL

Cc1ccc2nc(-c3ccc(F)cc3)c(CC(=O)N(C)C)n2n1.O=C(O)C(O)C(O)C(=O)O
Papp at 5 h, 100 µM [1]: 9.79 ×10⁻⁶ cm/s | solubility thermodynamic at 24 h [2]: > 2000 µg/mL

Cc1ccc2nc(-c3ccc(F)cc3)c(CC(=O)N3CCCC3)n2c1.O=C(O)C(O)C(O)C(=O)O
Cmax [3]: 445 ng/g | Tmax [4]: 5 min | half-life [5]: 30.6 min | CL/F [6]: 2.35 mL/min | Vd [7]: 0.383 L/kg | MRT [8]: 65.5 min | microsomal CLint [9]: 9.8 µL/min/mg | Cmax [10]: 2340 ng/mL | Papp at 5 h, 100 µM [1]: 29.7 ×10⁻⁶ cm/s | Drug uptake(free) [11]: 2482.75 nM | solubility thermodynamic at 24 h [2]: 1870 µg/mL | Tmax [12]: 5 min | Cmax [13]: 4500 ng/mL | AUC(0-t) at 8 h [14]: 39 ng·h/mL | MRT [15]: 39.7 min | Drug metabolism [16]: metabolite_detected | half-life [17]: 270 min | AUCt [18]: 8229 ng·min/g | half-life [19]: 135 min | Cp(f) [20]: 348.03 nM | Drug uptake [21]: Active | AUCt [22]: 15265 ng·min/g | Cmax [23]: 220 ng/g | MRT [24]: 27.6 min | half-life [25]: 176 min | AUC(0-t) at 8 h [26]: 2140 ng·h/mL | Papp A→B [27]: 55.6 ×10⁻⁶ cm/s | half-life [28]: 47.8 min | clearance [29]: 5.56 mL/min/kg | half-life [30]: 653 min | Papp B→A [31]: 29.7 ×10⁻⁶ cm/s | Tmax [32]: 5 min | MRT [33]: 102 min | MRT [34]: 50.9 min | Vd [35]: 0.104 L/kg | AUCt [36]: 538253 ng·min/g

Cn1c(=O)c2c(ncn2C)n(C)c1=O [CAFFEINE]
Papp at 5 h, 100 µM [1]: 15.2 ×10⁻⁶ cm/s

CCN1CCCC1CNC(=O)c1cc(S(N)(=O)=O)ccc1OC (stereo not given) [SULPIRIDE]
Papp at 5 h, 100 µM [1]: 0.016 ×10⁻⁶ cm/s

Cc1ccc(-c2nc3ccc(C)cn3c2CC(=O)N(C)C)cc1.Cc1ccc(-c2nc3ccc(C)cn3c2CC(=O)N(C)C)cc1.O=C(O)C(O)C(O)C(=O)O [ZOLPIDEM TARTRATE]
Papp at 5 h, 100 µM [1]: 21.6 ×10⁻⁶ cm/s

Cc1ccc(-c2nc3ccc(C)cn3c2CC(=O)N(C)C)cc1 [ZOLPIDEM]
half-life [37]: 30.6 min | solubility thermodynamic at 24 h [2]: > 2000 µg/mL | half-life [38]: 120 min
